Test results: patent US6197802A, “Fungicidal melithiazole derivatives” (American Cyanamid Co., priority 1997, dated 2001)
In brackets after ≈: the same amount, converted by molar mass. Read-outs that look alike come from different tables or passages of the source.

What was measured:
Botrytis cinera = test: Serial dilution test, Minimum Inhibitory Concentration, Botrytis cinera (BOC); format: cell-based; details: read-out: MIC (BOC)
Description: (§1) Determination of Minimum Inhibitory Concentration by Test Compounds in the Serial Dilution Test with Botrytis cinera (BOC), and Hansenula anomala (HNA).
(§2) The MIC (Minimum Inhibitory Concentration) value, which indicates the lowest concentration of the active ingredient in the growth medium which causes a total inhibition of mycelial growth, is determined by serial dilution tests. The compounds of the invention have been compared with known melithiazole C. melithiazole C-amide and with the commercially available strobilurines kresoxim-methyl (BASF AG) and azoxystrobin (ZENECA).

Hansenula anomala = test: Serial dilution test, Minimum Inhibitory Concentration, Hansenula anomala (HNA); format: cell-based; details: read-out: MIC (HNA)
Description: as §1, §2

[1] = tested on: mouse fibroblasts (cell line L929); test: Toxicity using mouse fibroblasts (cell line L929); format: cell-based; details: for Therapeutic Index: ratio toxicity IC50 (L929) / BOC-MIC
Excerpt: In addition, the toxicity IC50 of these compounds has been evaluated using mouse fibroblasts (cell line L929). The therapeutic index given is defined as the ratio between the toxicity and the BOC-MIC value (IC50 /MIC).

Plasmopara viticola [2] = test: Protective (1 d res) activity, grape downy mildew (GDM); format: in vivo; details: 1 d protective
Plasmopara viticola [3] = test: Curative (2 d cur) activity, grape downy mildew (GDM); format: in vivo; details: 2 d curative
Phytophthora infestans = format: in vivo; details: 1 d protective
[4] = tested on: powdery mildew (Erysiphe graminis) on wheat; test: Foliar systemicity in wheat leaves, wheat powdery mildew as indicator disease; details: for Systemicity distal (disease free zone) / Systemicity proximal (disease free zone): wheat leaves, band application of 400 ppm solution; for Systemicity distal (disease free zone): toward leaf apex; for Systemicity proximal (disease free zone): toward leaf base
Description: Foliar systemicity: When the primary leaves of wheat planted in 8 cm diameter pots in the greenhouse were fully expanded, the plants were cut back to four leaves in each pot of which two were marked with a permanent marker 5 cm below the leaf tip on the upper leaf surface. Thus there were two band-treated and two untreated plants in each pot. […] The application band covered the whole leaf width. After application and after the bands were dried, the plants were moved to the greenhouse and kept there for 2 days to allow for movement of the compounds. The plants were kept by bottom watering. The plants were then inoculated by dusting them with powdery mildew conidia (Erysiphe graminis). Evaluations were made 7-8 days after inoculation. Distal and proximal movement were assessed as follows: The distal and proximal disease free zones on the upper leaf surface were measured in mm. The distal direction is from the band toward the leaf apex and the proximal direction is from the band towards the leaf base.

Pyrenophora teres = test: Protective (1 d res) activity, barley net blotch (BNB); format: in vivo; details: 1 d protective
phytopathogenic fungi = test: Curative in-vivo tests, overall statement; details: overall statement in words
Description: Test Plants: Test plants were grown up in the greenhouse. Either seed, pregerminated seed or rooted vegetative plant material was planted in pots containing a fertilized soil/peat mixture. Test plants were used for treating them with the various fungicides when they were in the 3-4 leaf stage. The number of leaves of vegetatively propagated plant material was cut back to 3-4 leaves per plant.
Application: Test plants were treated with fungicides either 1 or 3 days before (protective treatments) or 2 or 3 days after (curative treatments) the inoculation with a pathogen. The test compounds were applied to the test plants using a lateral-nozzle sprayer with a turntable rotating the pots, or the test compounds were applied with an hand-held airbrush. 24 plants were used per treatment.
Compounds: Technical material of the compound according to the invention coded MCM, and of commercially available strobilurines kresoxim-methyl (BASF) and azoxystrobin (ZENECA) was dissolved in acetone with 0.5% Triton X155 at a concentration of 0.5%. […]
Assessment of diseases: The percentage of leaf area infected was assessed by visual estimation when untreated control plants were just completely diseased. Each plant was individually evaluated and then the mean infection rating was calculated for each treatment. The fungicidal activity was calculated using the following formula: [formula] […]

Bortrytis cinera = details: poster of B. Bohlendorf et al., 1996; cited from earlier work
[5] = Botrytis cinera, total inhibition of mycelial growth
[6] = total inhibition of mycelial growth
[7] = toxicity, mouse fibroblasts L929, read-out: IC50

SMILES	Therapeutic Index [1]	MIC (Botrytis cinera; [5]) [µg/mL]	MIC (Hansenula anomala; [6]) [µg/mL]	IC50 [1, 7] [µg/mL]	other results
C=C(C)c1nc(/C=C/[C@H](OC)[C@@H](C)/C(=C\C(=O)OC)OC)cs1 [Example 29, Methyl 7-[2-isopropenylthiazol-4-yl]-3,5-dimethoxy-4-methylheptan-2,6-dienoate]	100	–	–	–	MIC (Botrytis cinera; Botrytis): 0.02 µg/mL (≈ 0.0593 µM); MIC (Hansenula anomala): 0.3 µg/mL (≈ 0.889 µM); IC50 ([1]; Mus musculus, L929): 2 µg/mL (≈ 5.93 µM)
CCOC(=O)/C=C(/OC)[C@H](C)[C@H](/C=C/c1csc(C(C)=NOC)n1)OC (mixture of isomers) [(E/Z)-(13/14)]	40	0.005	0.02	0.2	–
COC(=O)/C=C(/OC)[C@H](C)[C@H](/C=C/c1csc(C2(C)CO2)n1)OC (some centres unmarked) [Example 41, Methyl 7-[2-(1,2-epoxy-1-methylethyl)thiazol-4-yl]-3,5-dimethoxy-4-methylheptan-2,6-dienoate]	> 6.17	–	–	–	MIC (Botrytis cinera; Botrytis): 0.6 µg/mL (≈ 1.7 µM); MIC (Hansenula anomala): 5 µg/mL (≈ 14.1 µM); IC50 ([1]; Mus musculus, L929): > 3.7 µg/mL
CON=C(C)c1nc(/C=C/[C@H](OC)[C@@H](C)/C(=C\C(=O)OC)OC)cs1 (mixture of isomers) [MCM]	–	–	–	–	activity (%) GDM 1 d res (Plasmopara viticola [2]; dose 4 ppm): 92%; activity (%) GDM 1 d res (Plasmopara viticola [2]; dose 20 ppm): 100%; activity (%) GDM 2d cur (Plasmopara viticola [3]; dose 4 ppm): 0%; activity (%) GDM 2d cur (Plasmopara viticola [3]; dose 20 ppm): 59%; activity (%) TLB 1 d res (Phytophthora infestans; dose 4 ppm): 25%; activity (%) TLB 1 d res (Phytophthora infestans; dose 20 ppm): 65%; foliar systemicity ([4]; overall statement in words): better than that of the commercialized strobilurine derivatives kresoxim-methyl and azoxystrobin; bioavailable ([4]; plant, implied by foliar systemicity and curative values): readily and highly bioavailable; Systemicity distal (disease free zone) [4]: 50 mm; Systemicity proximal (disease free zone) [4]: 21 mm; activity (%) BNB 1 d res (Pyrenophora teres; dose 4 ppm): 100%; activity (%) BNB 1 d res (Pyrenophora teres; dose 20 ppm): 100%; curative activity (phytopathogenic fungi): better than that of the commercialized strobilurine derivatives kresoxim-methyl and azoxystrobin
CO/N=C(/C)c1nc(/C=C/[C@H](OC)[C@@H](C)/C(=C\C(=O)OC)OC)cs1 [8:(Z)-MCM]	100	0.005 (≈ 0.0136 µM)	0.08 (≈ 0.217 µM)	0.5 (≈ 1.36 µM)	–
CO/C(=C/C(N)=O)[C@H](C)[C@H](/C=C/c1csc(C(C)=O)n1)OC [1:melithiazole C-amide, 7-(2-acetylthiazol-4-yl)-3,5-dimethoxy-4-methylheptan-2,6-dienoic amide, reference compound]	< 0.8	> 10	> 10	8 (≈ 24.7 µM)	–
CO/N=C(\C)c1nc(/C=C/[C@H](OC)[C@@H](C)/C(=C\C(=O)OC)OC)cs1 [8:(E)-MCM]	160	0.0025 (≈ 0.00679 µM)	0.08 (≈ 0.217 µM)	0.4 (≈ 1.09 µM)	–
COC(=O)/C=C(/OC)[C@H](C)[C@H](/C=C/c1csc(C(C)OC)n1)OC (some centres unmarked) [Example 21, Methyl 7-[2-(1-methoxyethyl)thiazol-4-yl]-3,5-dimethoxy-4-methylheptan-2,6-dienoate]	13.33	0.15 (≈ 0.422 µM)	0.08 (≈ 0.225 µM)	2 (≈ 5.63 µM)	–
COC(=O)/C=C(/OC)[C@H](C)[C@H](/C=C/c1csc(/C(C)=N/OCc2ccccc2)n1)OC [Example 10]	1.25	0.04 (≈ 0.09 µM)	0.3 (≈ 0.675 µM)	0.05 (≈ 0.112 µM)	–
CO/C=C(/C(=O)OC)c1ccccc1Oc1cc(Oc2ccccc2C#N)ncn1 [azoxystrobin, reference compound]	–	–	–	–	Systemicity distal (disease free zone) [4]: 43 mm; Systemicity proximal (disease free zone) [4]: 9 mm
COC(=O)/C=C(/OC)[C@H](C)[C@H](/C=C/c1csc(C(C)=O)n1)OC [2:melithiazole C, methyl 7-(2-acetylthiazol-4-yl)-3,5-dimethoxy-4-methylheptan-2,6-dienoate, reference compound]	0.37	1.5 (≈ 4.42 µM)	3 (≈ 8.84 µM)	0.55 (≈ 1.62 µM)	in vitro activity against Bortrytis cinera (Bortrytis cinera): weak in vitro activity
COC(=O)/C=C(/OC)[C@H](C)[C@H](/C=C/c1csc(/C(C)=N\OCc2ccccc2)n1)OC [Example 9]	3.33	0.15 (≈ 0.337 µM)	0.6 (≈ 1.35 µM)	0.5 (≈ 1.12 µM)	–
COC(=O)/C=C(/OC)[C@H](C)[C@H](/C=C/c1csc(C(C)OC(C)=O)n1)OC (some centres unmarked) [Example 20, Methyl 7-[2-(1-acetoxyethyl)thiazol-4-yl]-3,5-dimethoxy-4-methylheptan-2,6-dienoate]	> 13.33	0.3 (≈ 0.782 µM)	1.25 (≈ 3.26 µM)	> 4	–
CO/N=C(/C(=O)OC)c1ccccc1COc1ccccc1C [kresoxim-methyl, reference compound]	3.75	0.1 (≈ 0.319 µM)	–	0.375 (≈ 1.2 µM)	activity (%) GDM 1 d res (Plasmopara viticola [2]; dose 4 ppm): 39%; activity (%) GDM 1 d res (Plasmopara viticola [2]; dose 20 ppm): 87%; activity (%) GDM 2d cur (Plasmopara viticola [3]; dose 4 ppm): 0%; activity (%) GDM 2d cur (Plasmopara viticola [3]; dose 20 ppm): 9%; Systemicity distal (disease free zone) [4]: 23 mm; Systemicity proximal (disease free zone) [4]: 13 mm; activity (%) BNB 1 d res (Pyrenophora teres; dose 4 ppm): 97%; activity (%) BNB 1 d res (Pyrenophora teres; dose 20 ppm): 98%
